The results in this text go back to US5981519A, “Vinyl-pyrrolidinone cephalosporins” (Hoffman-La Roche Inc., priority 1996, dated 1999).

For one experiment, the system named is P. aeruginosa ATCC27853. Nature of the experiment: In vitro activity, minimum inhibitory concentration, agar dilution, P. aeruginosa ATCC27853. The experiment is classed as cell-based. The settings on record: Pseudomonas aeruginosa, Mueller Hinton agar, inoculum=10^4 CFU/spot. As to the method: (§1) Representative compounds (A and B, above) of the present invention were tested. In vitro activity was determined by minimum inhibitory concentration by the agar dilution method in Mueller Hinton agar, inoculum=10^4 CFU/spot.
Background: In agar dilution, organisms are placed on agar that contains the substance at set levels.

In a further experiment the test system is S. aureus 743 (MRSA). The experiment in a line: In vitro activity, minimum inhibitory concentration, agar dilution, S. aureus 743 (MRSA). Type of experiment: cell-based. The settings on record: Staphylococcus aureus, Mueller Hinton agar, inoculum=10^4 CFU/spot. As to the method:
as §1

The next experiment relates to S.aureus 6538 (MSSA). Nature of the experiment: In vitro activity, minimum inhibitory concentration, agar dilution, S. aureus 6538 (MSSA). The experiment is classed as cell-based. The following applies: Staphylococcus aureus, Mueller Hinton agar, inoculum=10^4 CFU/spot. As to the method:
as §1

A further experiment relates to S. aureus 270A (MRSA). The experiment in a line: In vitro activity, minimum inhibitory concentration, agar dilution, S. aureus 270A (MRSA). The experiment is classed as cell-based. The following applies: Staphylococcus aureus, Mueller Hinton agar, inoculum=10^4 CFU/spot. As to the method: as §1
The next experiment has as its system S. aureus 270 A (MRSA). The experiment in a line: In vivo efficacy, sc abscess model in mice infected with S. aureus 270 A (MRSA). The settings on record: 10 mg/kg ip; for Median log CFU: 3 mice, untreated 6.92. As to the method: In vivo efficacy was determined with a sc abscess model in mice, infected with S. aureus 270 A (MRSA). The dose (ip) was 10 mg/kg. The median log of colony forming units (CFU) was determined.

In the next experiment the test system is MRSA. Nature of the experiment: In vitro activity, MIC90 against MRSA (n = 38), agar dilution. Type of experiment: cell-based. The settings on record: Staphylococcus aureus, MuellerHinton agar, inoculum: 10^5 CFU/spot. As to the method:
as §1
*Agar dilution method on MuellerHinton agar, inoculum: 10^5 CFU/spot

What is called MIC is the lowest concentration found to suppress growth. Usually MIC90 stands for an inhibitory concentration at the 90% level, which refers to growth in some studies and to a panel of isolates in others. A low value points to greater potency.

The structures appear in SMILES notation. In brackets after ≈: the same amount, converted by molar mass.

As for `Nc1nc(/C(=N/O)C(=O)N[C@@H]2C(=O)N3C(C(=O)O)=C(/C=C4\CCN([C@@H]5CCNC5)C4=O)CS[C@H]23)ns1` [A, (6R, 7R)-7-[(Z)-2-(5-Amino-[1,2,4]thiadiazol-3-yl)-2-hydroxyimino-acetylamino]-8-oxo-3-[(E)-(R)-2-oxo-[1,3']bipyrrolidinyl-3-ylidenemethyl]-5-thia-1-aza-bicyclo[4.2.0]oct-2-ene-2-carboxylic acid], the MIC with P. aeruginosa ATCC27853 amounted to 2 µg/mL (≈ 3.74 µM); with S. aureus 743 (MRSA) it was 2 µg/mL (≈ 3.74 µM); in the experiment with S.aureus 6538 (MSSA), 0.5 µg/mL (≈ 0.935 µM); with S. aureus 270A (MRSA) it was 2 µg/mL (≈ 3.74 µM). Also, the “activity compared with vancomycin” value in the experiment on S. aureus 270 A (MRSA) is “more active than vancomycin”. Moreover, the “reduction in the number of CFUs as compared to the untreated control” value in the experiment with S. aureus 270 A (MRSA) is “more than hundred-fold reduction”. In the experiment with S. aureus 270 A (MRSA), the “Median log CFU” value was 4.72 log CFU. Besides, the MIC90 in the experiment on MRSA worked out at 4 µg/mL (≈ 7.48 µM).
For `Nc1nc(/C(=N/O)C(=O)N[C@@H]2C(=O)N3C(C(=O)O)=C(/C=C4\CCN([C@H]5CCNC5)C4=O)CS[C@H]23)ns1` [B, (6R, 7R)-7-[(Z)-2-(5-Amino-[1,2,4]thiadiazol-3-yl)-2-hydroxyimino-acetylamino]-8-oxo-3-[(E)-(S)-2-oxo-[1,3']bipyrrolidinyl-3-ylidenemethyl]-5-thia-1-aza-bicyclo[4.2.0]oct-2-ene-2-carboxylic acid], the MIC in the experiment with P. aeruginosa ATCC27853 stood at 4 µg/mL (≈ 7.48 µM); in the experiment on S. aureus 743 (MRSA), 2 µg/mL (≈ 3.74 µM); with S.aureus 6538 (MSSA), 0.25 µg/mL (≈ 0.468 µM); against S. aureus 270A (MRSA) it was 4 µg/mL (≈ 7.48 µM). The MIC90 with MRSA is 4 µg/mL (≈ 7.48 µM).
For `CN[C@H](CC(C)C)C(=O)N[C@H]1C(=O)N[C@@H](CC(N)=O)C(=O)N[C@H]2C(=O)N[C@H]3C(=O)N[C@H](C(=O)N[C@H](C(=O)O)c4cc(O)cc(O)c4-c4cc3ccc4O)[C@H](O)c3ccc(c(Cl)c3)Oc3cc2cc(c3O[C@@H]2O[C@H](CO)[C@@H](O)[C@H](O)[C@H]2O[C@H]2C[C@](C)(N)[C@H](O)[C@H](C)O2)Oc2ccc(cc2Cl)[C@H]1O` [Vancomycin, vancomycin, reference compound], the “Median log CFU” value with S. aureus 270 A (MRSA) is listed as 5.28 log CFU.
